Common to all, as to assay: DTP human tumour cell line panel, 48 h
Assay [1] concerns MDA-N.
The test system of assay [2] is A498 renal.
The test system of assay [3] is NCI-H460 lung.
For assay [4], the system named is 786-0 renal.
The test system of assay [5] is HCT-15 colon.
Assay [6] concerns MALME-3M melanoma.
Assay [7] has as its system PC-3 prostate.
Assay [8] has as its system SNB-19 CNS.
Assay [9] relates to HOP-92 NSCLC.

Molecules are shown by their SMILES. “And” between values parts separate entries of the source, which are not always exact repeats. Equal entries are not always repeated.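 Results reflect a 48-hour exposure of cells in 96-well plates to compound at five concentrations. Abbreviation: GI50, concentration required for 50% inhibition of growth. The concentration for full growth arrest is given as TGI.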 Some results are limits rather than exact numbers.

For the compound `COc1cc2c(cc1OC)-c1[nH]c3ccc(C#N)cc3c1CC(=O)N2`, the concentration for total growth inhibition (TGI) (commonly the concentration giving total growth inhibition) was > 90.6 µM in assay [1]; > 100 µM in assay [2]; > 100 µM in assay [3]; > 100 µM in assay [4]; > 100 µM in [5]; > 100 µM in assay [6]. Also, the TGI in assay [7], in assay [8] and in assay [9] was > 100 µM each time.
Consider `COC(=O)[C@H](Cc1ccccc1)NC(=O)NCCN(CCNC(=O)N[C@@H](Cc1ccccc1)C(=O)OC)C(=O)N[C@@H](Cc1ccccc1)C(=O)OC`, for which the TGI in [1] is 32.9 µM; in [2], > 82.7 µM; in assay [3], 34.8 µM; in assay [4], 34.1 µM; in [5], > 100 µM; in assay [6], 37.8 µM. Also, the TGI in assay [7] is 40.6 µM; in [8], 48.2 µM; in assay [9], 70 µM.
`NC(=O)C(Nc1c(Cl)cccc1Cl)c1cc2cc(Br)ccc2nc1Cl` (stereo unspecified): the concentration for total growth inhibition (TGI) in [1], in [2], in [3], in [4], in assay [5] and in assay [6] was > 100 µM throughout. The TGI in [7], in assay [8] and in assay [9] was > 100 µM in each case.
`COc1cc(OCc2ccc3nc(-c4ccccc4)c(N)nc3c2)cc(OC)c1OC`: the TGI in assay [1] was 28.8 µM; in [2], 73.8 µM; in assay [3] it was 39.7 µM; in assay [4] it was 81.2 µM; in assay [5], 39.7 µM; in assay [6], 32.4 µM. Besides, the results for the concentration for total growth inhibition (TGI) in assay [7], in [8] and in assay [9] were 45.4 µM, > 100 µM and 50 µM, respectively.
On to `CC(C)=CCOc1cc(NC(=S)c2ccoc2C)ccc1Cl`, for which the TGI in assay [1], in assay [2], in assay [3], in assay [4], in [5] and in assay [6] was > 100 µM each time. Moreover, the TGI in [7], in [8] and in assay [9] was > 100 µM each time.
For the compound `C=C(c1ccccc1)C1ON(C)CCc2cc(OC)c(OC)cc21` (stereo unspecified), the TGI in [1], in assay [2], in assay [3], in assay [4], in assay [5] and in [6] was > 100 µM in each case. Moreover, the TGI in assay [7], in [8] and in assay [9] was > 100 µM throughout.
With `Oc1ccccc1/C=N/Nc1nnc2c3ccccc3c3ccccc3c2n1`, the TGI in assay [1], in assay [2], in [3], in assay [4], in assay [5] and in assay [6] was > 100 µM each time. For the same compound, the TGI in assay [7], in assay [8] and in assay [9] was > 100 µM each time.
Turning to `COc1cc(S(=O)(=O)Nc2ccc(-c3csc(N4C(=O)CSC4c4cccs4)n3)cc2)ccc1Cl` (stereo unspecified), the TGI in assay [1] was 98.2 µM; in assay [2], > 100 µM; in assay [3], 91 µM; in assay [4], > 100 µM; in assay [5], > 100 µM; in assay [6], 70.6 µM. The TGI in [7], in assay [8] and in assay [9] was > 100 µM throughout.
On to `CCCCCC(=O)Nc1n[nH]nc1C(N)=O`, for which the TGI in [1], in assay [2], in assay [3], in assay [4], in assay [5] and in assay [6] was > 100 µM throughout. The TGI in assay [7], in assay [8] and in assay [9] was > 100 µM each time.
Turning to `C[C@@]12C=CC3C/C(=N\C(N)=S)C=C(CCCC4OCCO4)[C@]3(CC1)C2` (stereo partly specified), the TGI worked out at 33.9 µM in assay [1]; 33.1 µM in assay [2]; 32 µM in assay [3]; 57.1 µM in assay [4]; 53.6 µM in assay [5]; 37.6 µM in assay [6]. Also, the TGI in assay [7] was 50.7 µM; in assay [8], > 100 µM; in assay [9], > 100 µM.
`O=C1c2cc3c(cc2CC12Cc1cc4c(cc1C2=O)CCCC4)CCCC3`: the concentration for total growth inhibition (TGI) was > 100 µM in [1]; > 100 µM in [2]; > 100 µM in assay [3]; 52.4 µM in assay [4]; > 100 µM in [5]; > 100 µM in [6]. In addition, the TGI is > 100 µM in assay [7], > 100 µM in [8] and 50.6 µM in assay [9].
As for `O=S1(=O)c2cnccc2NC(=NCc2cccc3ccccc23)N1c1ccccc1`, the TGI was 26.9 µM in assay [1]; > 100 µM in [2]; > 100 µM in assay [3]; 74.7 µM in assay [4]; > 100 µM in assay [5]; > 100 µM in assay [6]. Besides, the TGI in assay [7] was > 81.8 µM; in assay [8], > 100 µM; in [9], > 100 µM.
As to `Fc1c(F)c(C(F)(F)F)c(F)c(F)c1N/N=C\c1c[nH]c2ccccc12`, the TGI was determined as 3.61 µM in [1]; 15 µM in assay [2]; 3.93 µM in [3]; 14.5 µM in [4]; 12.8 µM in [5]; 16.1 µM in [6]. Moreover, the TGI is 8.01 µM in assay [7], 12 µM in assay [8] and 16.5 µM in [9].
`COc1ccc(/C=C2\OC(=O)C(Cl)=C2c2ccc(OC)cc2)cc1`: the TGI in assay [1], in [2], in assay [3], in assay [4], in assay [5] and in assay [6] was > 100 µM each time. Also, the total growth inhibition concentration (TGI) was > 100 µM in assay [7], > 100 µM in assay [8] and 70.1 µM in assay [9].
With `Cc1ccc(NCC2CC/C(=C\c3ccc(Cl)cc3)C2=O)cc1` (stereo unspecified), the TGI is 26.4 µM in assay [1]; > 73.3 µM in assay [2]; > 62.4 µM in [3]; 11.3 µM in [4]; 9.41 µM in [5]; 38 µM in assay [6]. Besides, the figures for the TGI in assay [7], in [8] and in assay [9] were 37.5 µM, > 55.7 µM and 30.6 µM, respectively.
In the case of `CC1(C)C(=O)N(O)C(C)(C)N1O`, the TGI in assay [1], in [2], in [3], in assay [4], in assay [5] and in assay [6] was > 10 µM in each case. Moreover, the concentration for total growth inhibition (TGI) in assay [7], in assay [8] and in assay [9] was > 10 µM in each case.
As for `COc1cc2cc(C(=O)N3CC(CCl)c4c3cc(NC(=O)C(C)(C)c3ccccc3[N+](=O)[O-])c3ccccc43)[nH]c2c(OC)c1OC` (stereo unspecified), the GI50 (as a rule, the concentration that inhibits growth by half) in assay [1] was 76.7 µM; in assay [2], 59.1 µM; in [3] it was 0.825 µM; in assay [5], 13.2 µM; in assay [6] it was 103 µM; in assay [7], 19.4 µM. For the same compound, the GI50 in [8] was 303 µM; in assay [9] it was 222 µM. The concentration for total growth inhibition (TGI) was 1.64 µM and 15.5 µM in assay [3]; > 600 µM in [4]; 35.9 µM and 206 µM in assay [7].
Take `Clc1cccc(Cl)c1C=NC12CC3CC(CC(C3)C1)C2`: the TGI in assay [1], in assay [2], in assay [3], in assay [4], in assay [5] and in assay [6] was > 10 µM each time. The TGI in assay [7], in assay [8] and in assay [9] was > 10 µM throughout.
Regarding `CCOC(=O)c1nc2ccc(C(F)(F)F)cc2nc1NCc1ccc(Cl)c(Cl)c1`, the TGI in assay [1] is > 100 µM; in [2], 92.1 µM; in assay [3], > 100 µM; in [4] it was 46.7 µM; in assay [5] it was > 100 µM; in assay [6], 99.1 µM. Further, the TGI was found to be 75.9 µM in assay [7], 83.2 µM in assay [8] and 40.4 µM in assay [9].
Turning to `c1csc(-c2cscc2-c2ccsc2)c1`, the TGI was > 63.3 µM in [1]; > 100 µM in assay [2]; > 100 µM in assay [3]; > 100 µM in assay [4]; > 100 µM in assay [5]; 95 µM in assay [6]. Also, the TGI in assay [7] was > 77.9 µM; in assay [8] it was > 100 µM; in assay [9] it was > 100 µM.
For `O=c1[nH]c(=O)n(C2OC(CO)C(O)C(F)C2O)cc1F` (stereo unspecified), the TGI in assay [1], in assay [2], in [3], in assay [4], in assay [5] and in assay [6] was > 100 µM throughout. Moreover, the TGI in assay [7], in assay [8] and in [9] was > 100 µM throughout.
